Data: US20240384268A1, “Oligonucleotides” (Hudson Institute of Medical Research, priority 2021, published 2024)
“Also recorded” adds a separate entry of the source. In the oligonucleotide strings, read from the 5' end, every base follows the letter of its sugar. An asterisk marks phosphorothioate; unmarked linkages are phosphodiester. Other units and linkages are bracketed, terminal groups are in braces. A string of capitals states the bases alone. d = 2'-deoxy (DNA); m = 2'-O-methyl

Legend:
[1] = molecular target: T1, cGAS (Mus musculus, UniProt Q8C6L5); test: IFN-driven gene expression in Trex1-mutant primary BMDMs, RT-qPCR; conditions: 50 nM ASO transfected 20 h
T1 sequence (Q8C6L5 whole entry): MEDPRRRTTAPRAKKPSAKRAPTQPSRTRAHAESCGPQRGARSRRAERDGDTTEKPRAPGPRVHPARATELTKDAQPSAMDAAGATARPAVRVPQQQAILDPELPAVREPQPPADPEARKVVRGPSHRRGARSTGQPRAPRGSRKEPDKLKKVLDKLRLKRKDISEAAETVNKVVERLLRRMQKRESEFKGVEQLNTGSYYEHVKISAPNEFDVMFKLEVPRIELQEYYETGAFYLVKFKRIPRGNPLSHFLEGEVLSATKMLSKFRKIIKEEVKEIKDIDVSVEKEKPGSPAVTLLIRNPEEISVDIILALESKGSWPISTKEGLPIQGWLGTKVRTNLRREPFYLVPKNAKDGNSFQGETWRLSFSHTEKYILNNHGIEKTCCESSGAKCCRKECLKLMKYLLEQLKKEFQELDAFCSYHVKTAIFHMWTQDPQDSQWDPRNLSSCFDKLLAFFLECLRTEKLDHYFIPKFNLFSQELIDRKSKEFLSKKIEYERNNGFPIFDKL

[2] = molecular target: T2, mouse Tlr9 (Mus musculus, UniProt Q9EQU3); test: ODN 1826-driven TNF-α in immortalised mouse BMDMs; format: cell-based; conditions: iBMDMs; 250-500 nM ASO; ODN 1826 500 nM overnight; listed as C2-Mutl
T2 construct: endogenous in cells; host or cells: immortalised wild-type mouse BMDMs
T2 sequence (Q9EQU3 26-1032): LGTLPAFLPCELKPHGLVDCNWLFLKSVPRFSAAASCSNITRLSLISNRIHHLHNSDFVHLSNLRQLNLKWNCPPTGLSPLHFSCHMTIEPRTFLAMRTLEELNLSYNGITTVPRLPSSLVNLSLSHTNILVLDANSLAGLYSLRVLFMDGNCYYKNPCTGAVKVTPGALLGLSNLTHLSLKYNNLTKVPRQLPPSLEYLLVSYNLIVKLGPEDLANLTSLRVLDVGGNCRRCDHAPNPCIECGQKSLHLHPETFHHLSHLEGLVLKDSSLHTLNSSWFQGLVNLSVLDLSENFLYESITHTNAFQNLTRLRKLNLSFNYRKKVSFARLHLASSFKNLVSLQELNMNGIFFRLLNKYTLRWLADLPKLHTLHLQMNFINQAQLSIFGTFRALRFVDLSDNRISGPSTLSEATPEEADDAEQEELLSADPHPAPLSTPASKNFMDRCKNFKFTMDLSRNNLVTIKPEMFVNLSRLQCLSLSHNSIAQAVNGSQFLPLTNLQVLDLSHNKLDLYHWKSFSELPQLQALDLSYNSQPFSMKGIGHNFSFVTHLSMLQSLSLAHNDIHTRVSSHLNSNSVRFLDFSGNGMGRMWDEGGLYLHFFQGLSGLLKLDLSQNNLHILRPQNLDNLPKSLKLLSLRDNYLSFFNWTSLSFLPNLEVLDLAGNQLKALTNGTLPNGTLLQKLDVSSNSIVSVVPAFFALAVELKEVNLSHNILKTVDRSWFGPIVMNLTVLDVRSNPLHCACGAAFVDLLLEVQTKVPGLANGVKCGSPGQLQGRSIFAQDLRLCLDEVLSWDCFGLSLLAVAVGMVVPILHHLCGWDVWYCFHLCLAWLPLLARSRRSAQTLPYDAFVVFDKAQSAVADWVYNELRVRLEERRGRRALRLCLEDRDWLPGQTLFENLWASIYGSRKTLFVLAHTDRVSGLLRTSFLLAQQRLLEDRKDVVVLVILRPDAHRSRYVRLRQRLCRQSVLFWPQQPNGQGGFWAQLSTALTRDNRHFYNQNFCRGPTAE

[3] = molecular target: T3, STING (Homo sapiens, UniProt Q86WV6); test: STING agonist (GSK, DMXAA)-driven IP-10 in MG-63 cells and immortalised mouse BMDMs; format: cell-based; conditions: C2-Mut1 500 nM 6 h (GSK 100 nM, DMXAA 50 μg/ml); MOE/LNA ASOs 1 mM as printed (GSK, MG-63)
T3 construct: host or cells: MG-63 (human osteosarcoma)
T3 sequence (Q86WV6 whole entry): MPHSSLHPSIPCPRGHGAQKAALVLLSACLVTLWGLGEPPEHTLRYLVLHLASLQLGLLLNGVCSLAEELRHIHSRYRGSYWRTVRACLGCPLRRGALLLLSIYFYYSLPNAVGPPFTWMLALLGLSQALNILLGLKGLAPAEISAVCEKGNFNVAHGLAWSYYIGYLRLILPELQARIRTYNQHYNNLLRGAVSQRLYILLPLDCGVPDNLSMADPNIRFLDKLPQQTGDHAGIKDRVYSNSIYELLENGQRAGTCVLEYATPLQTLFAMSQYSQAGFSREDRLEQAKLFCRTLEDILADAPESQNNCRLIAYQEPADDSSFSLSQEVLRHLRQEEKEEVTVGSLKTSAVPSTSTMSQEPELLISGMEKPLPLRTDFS

[4] = system: primary fibroblast-like synoviocytes (FLS) and bone marrow-derived MSCs; test: Senescence β-galactosidase staining of primary FLS and MSCs; conditions: naked ASO 1 to 5 μM for one to two weeks; listed as C2-Mutl
[5] = molecular target: cGAS (Homo sapiens, UniProt Q8N884); test: ISD70-driven IP-10 production in MG-63 cells; format: cell-based; parameters: endogenous in cells; conditions: C2-Mut1 500 nM 6 h, or ASO847 series ~30 min, ISD70 overnight
Chain of cGAS (Homo sapiens, UniProt Q8N884) (Q8N884 whole entry): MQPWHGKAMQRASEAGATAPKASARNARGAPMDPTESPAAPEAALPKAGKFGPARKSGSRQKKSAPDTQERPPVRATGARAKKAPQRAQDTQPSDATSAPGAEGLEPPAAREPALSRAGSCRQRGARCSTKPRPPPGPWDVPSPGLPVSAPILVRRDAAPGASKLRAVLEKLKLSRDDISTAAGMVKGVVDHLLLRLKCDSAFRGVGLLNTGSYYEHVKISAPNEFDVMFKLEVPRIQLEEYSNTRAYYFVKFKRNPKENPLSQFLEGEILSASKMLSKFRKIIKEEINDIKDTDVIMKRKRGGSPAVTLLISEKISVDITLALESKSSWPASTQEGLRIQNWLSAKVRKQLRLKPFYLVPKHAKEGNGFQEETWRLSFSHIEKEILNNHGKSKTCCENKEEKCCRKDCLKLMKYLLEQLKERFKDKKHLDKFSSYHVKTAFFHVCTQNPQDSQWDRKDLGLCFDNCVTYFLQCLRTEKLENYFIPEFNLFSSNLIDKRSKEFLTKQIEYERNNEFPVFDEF

[6] = molecular target: T1, cGAS; test: ISD-driven IP-10 production in immortalised mouse BMDMs; format: cell-based; parameters: endogenous in cells; host or cells: immortalised wild-type mouse bone marrow macrophages (iBMDMs); conditions: iBMDMs; 500 nM ASO; ISD overnight
[7] = molecular target: T4, TLR2/1 (Mus musculus, UniProt Q9EPQ1+Q9QUN7); test: PAM3CSK4-driven TNF-α in immortalised mouse BMDMs; format: cell-based; conditions: iBMDMs; 500 nM ASO 6 h; PAM3C 100 ng/ml
T4 construct: endogenous in cells; host or cells: immortalised wild-type mouse BMDMs
T4 sequence (Q9QUN7 25-784): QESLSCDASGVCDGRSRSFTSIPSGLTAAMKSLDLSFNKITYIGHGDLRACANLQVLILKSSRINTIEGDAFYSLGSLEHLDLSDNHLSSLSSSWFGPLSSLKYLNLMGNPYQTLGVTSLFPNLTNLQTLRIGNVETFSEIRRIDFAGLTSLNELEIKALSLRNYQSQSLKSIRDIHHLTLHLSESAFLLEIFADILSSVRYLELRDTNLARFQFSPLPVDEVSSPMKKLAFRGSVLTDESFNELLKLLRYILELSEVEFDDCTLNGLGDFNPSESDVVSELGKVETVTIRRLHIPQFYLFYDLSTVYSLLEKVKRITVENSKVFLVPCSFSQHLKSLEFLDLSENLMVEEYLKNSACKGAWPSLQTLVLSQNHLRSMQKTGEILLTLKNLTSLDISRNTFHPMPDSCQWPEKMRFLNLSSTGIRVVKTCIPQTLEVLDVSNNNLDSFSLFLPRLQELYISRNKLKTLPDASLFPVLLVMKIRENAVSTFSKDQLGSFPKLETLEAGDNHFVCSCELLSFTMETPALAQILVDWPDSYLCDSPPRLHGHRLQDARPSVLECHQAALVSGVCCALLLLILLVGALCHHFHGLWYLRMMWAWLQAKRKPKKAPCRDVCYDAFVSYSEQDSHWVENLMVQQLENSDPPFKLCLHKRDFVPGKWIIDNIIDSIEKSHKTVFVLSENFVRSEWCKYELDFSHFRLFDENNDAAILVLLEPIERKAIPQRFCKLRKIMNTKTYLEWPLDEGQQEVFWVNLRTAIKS
T4 sequence (Q9EPQ1 26-795): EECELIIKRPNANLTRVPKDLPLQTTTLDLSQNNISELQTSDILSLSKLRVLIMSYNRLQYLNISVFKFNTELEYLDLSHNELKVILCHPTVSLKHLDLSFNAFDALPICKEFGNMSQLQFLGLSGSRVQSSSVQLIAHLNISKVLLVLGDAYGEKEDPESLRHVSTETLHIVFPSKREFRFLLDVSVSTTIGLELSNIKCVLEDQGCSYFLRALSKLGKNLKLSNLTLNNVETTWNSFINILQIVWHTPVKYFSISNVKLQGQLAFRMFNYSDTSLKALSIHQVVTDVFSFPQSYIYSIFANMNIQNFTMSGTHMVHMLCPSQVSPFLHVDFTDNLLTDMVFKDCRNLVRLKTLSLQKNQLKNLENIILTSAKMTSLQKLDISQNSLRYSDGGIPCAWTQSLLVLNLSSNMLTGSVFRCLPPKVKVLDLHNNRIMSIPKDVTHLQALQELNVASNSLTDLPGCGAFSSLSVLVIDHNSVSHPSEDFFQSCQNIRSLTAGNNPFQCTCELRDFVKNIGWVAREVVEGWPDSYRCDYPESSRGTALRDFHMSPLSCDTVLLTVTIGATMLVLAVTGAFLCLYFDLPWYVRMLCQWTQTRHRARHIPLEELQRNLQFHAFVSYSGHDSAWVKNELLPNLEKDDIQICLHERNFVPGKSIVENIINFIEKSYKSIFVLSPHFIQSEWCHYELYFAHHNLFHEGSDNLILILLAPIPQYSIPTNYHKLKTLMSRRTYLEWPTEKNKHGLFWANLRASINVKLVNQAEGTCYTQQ

[8] = system: TLR4; test: LPS-driven IP-10 in MG-63 cells and immortalised mouse BMDMs; format: cell-based, human; conditions: 500 nM ASO 6 h; LPS 1 μg/ml overnight
[9] = molecular target: T5, TLR7 (Mus musculus, UniProt P58681); test: B-406-AS ssRNA-induced TNFα in primary BMDMs; conditions: WT primary BMDMs; 100 nM ASO 1 h; 250 nM B-406-AS RNA overnight; vs dC20 co-treatment
T5 sequence (P58681 27-1050): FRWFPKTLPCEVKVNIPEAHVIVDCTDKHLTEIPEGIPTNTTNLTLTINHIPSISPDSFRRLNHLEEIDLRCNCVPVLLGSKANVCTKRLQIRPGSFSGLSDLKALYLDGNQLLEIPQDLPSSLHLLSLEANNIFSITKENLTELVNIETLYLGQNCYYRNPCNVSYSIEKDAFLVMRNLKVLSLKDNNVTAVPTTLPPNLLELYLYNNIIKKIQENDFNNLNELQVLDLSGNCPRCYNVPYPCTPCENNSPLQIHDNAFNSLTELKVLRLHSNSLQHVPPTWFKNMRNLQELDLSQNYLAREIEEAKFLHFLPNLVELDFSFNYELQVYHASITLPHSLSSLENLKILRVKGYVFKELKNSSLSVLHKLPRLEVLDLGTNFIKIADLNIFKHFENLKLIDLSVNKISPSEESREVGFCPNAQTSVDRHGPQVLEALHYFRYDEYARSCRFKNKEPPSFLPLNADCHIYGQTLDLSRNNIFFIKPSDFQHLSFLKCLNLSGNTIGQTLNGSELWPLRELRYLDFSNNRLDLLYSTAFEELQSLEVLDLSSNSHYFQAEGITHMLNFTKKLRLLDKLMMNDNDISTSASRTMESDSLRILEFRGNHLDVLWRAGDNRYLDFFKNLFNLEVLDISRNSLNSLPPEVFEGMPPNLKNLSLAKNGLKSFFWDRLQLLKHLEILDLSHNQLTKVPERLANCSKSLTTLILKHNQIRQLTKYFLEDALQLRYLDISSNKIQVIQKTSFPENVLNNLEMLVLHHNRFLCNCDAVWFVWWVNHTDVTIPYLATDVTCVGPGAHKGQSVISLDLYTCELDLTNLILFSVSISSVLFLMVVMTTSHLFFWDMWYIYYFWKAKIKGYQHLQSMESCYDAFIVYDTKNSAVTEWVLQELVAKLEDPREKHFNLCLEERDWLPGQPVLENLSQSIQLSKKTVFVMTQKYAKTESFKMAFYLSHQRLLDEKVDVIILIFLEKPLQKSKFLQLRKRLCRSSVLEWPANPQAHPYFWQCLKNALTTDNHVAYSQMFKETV

| Substance | basal expression of ISGs (Rsad2, Ifit1) in Trex1-mutant BMDMs (in words) [1] | inhibition of mouse TLR9 sensing of CpG ODN (TNF-α; in words) [2] | IP-10 production driven by STING synthetic agonists (in words) [3] | senescence-associated β-galactosidase (SAB) positive cells (in words) [4] | inhibition of ISD sensing in MG-63, 2′OMe ASOs (in words) [5] | ISD-induced IP-10 in immortalised mouse BMDMs (in words) [6] | TNF-α production upon PAM3CSK4 (in words) [7] | IP-10 production driven by LPS (in words) [8] | TNFα production induced by ssRNA sensing (in words) [9] |
| --- | --- | --- | --- | --- | --- | --- | --- | --- | --- |
| T*T*A* G*G*G* T*T*A* G*G*G* T*T*A* G*G*G* T*T*A* G*G*G [A151, reference compound] | failed to inhibit these ISGs |  |  |  |  |  |  |  |  |
| mG*mC*mG*mG*mU*A*T*C*C*A*T*G*T*C*C*mC*mA*mG*mG*mC (mG*mC*mG*mG*mU*dA*dT*dC*dC*dA*dT*dG*dT*dC*dC*mC*mA*mG*mG*mC; antisense) [C2-Mut1] | significantly decreased the basal expression of two ISGs | significantly decreased sensing of the CpG ODN 1826; also recorded: very potent inhibitor of mouse TLR9 | did not significantly affect IP-10 production | senescence was strongly reduced; also recorded: more potent inhibitor of SAB than A151 | significantly impacting ISD sensing | significantly impacting ISD sensing | did not impact production of TNF-α | did not significantly affect IP-10 production | significantly reduced TNFα production |
| mG*mG*mU*A*T*C*C*C*C*C*C*C*C*C*C*C*C*C*C*C (GGUATCCCCCCCCCCCCCCC; antisense; sugars from the 5' end m3 d17, all phosphorothioate, methylation of C not given here) [[C2]Mut1-dC] |  |  |  |  |  |  |  |  | significantly reduced TNFα production |
